Values of other authors, collected in patent US20230295082A1, “MODIFIED EZETIMIBE DRUG FOR CANCER TREATMENT” (University of South Africa, priority 2020, published 2023).

Legend:
Mdm2 p53-binding domain = Mdm2 p53-binding domain (Homo sapiens, UniProt Q00987); conditions: applicant's previous work
[1] = tested on: cancer cell lines, especially those that overexpress Mdm2

Sequence of Mdm2 p53-binding domain (Q00987 26-109 limits assumed): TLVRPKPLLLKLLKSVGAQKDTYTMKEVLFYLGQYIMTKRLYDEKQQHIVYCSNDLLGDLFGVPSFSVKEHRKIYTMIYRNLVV

O=C1[C@H](CC[C@H](O)c2ccc(F)cc2)[C@@H](c2ccc(O)cc2)N1c1ccc(F)cc1 [ezetimibe]
binding to the Mdm2 hydrophobic pocket relative to nutlins (Mdm2 p53-binding domain): bind more strongly than nutlins | toxicity to cancer cell lines [1]: toxic to cancer cell lines
